From patent US6069167A, “Use of antioxidant agents to treat cholestatic liver disease” (priority 1997, dated 2000)

How the values were obtained:
liver = experiment: Histology of the liver in the in vivo reversible hepatic injury model; set-up: species or system rat
Source text: The instant invention also provides for an in vivo reversible hepatic injury model animal model, preferably a rodent model, most preferably a rat model. The animal can be dosed with any injurious bile acid or analogs thereof Suitable injurious bile acids include conjugates of chenodeoxycholic acid and lithocholic acid. A particularly suitable injurious bile acid analog is taurochenodeoxycholic acid. The injurious bile acid or analog can be administered by any suitable means, such as injection, oral or rectal administration. The injurious bile acid or analog thereof can be conveniently administered intravenously, particularly intravenous administration in the tail vein. The time of administration should be for less than 10 minutes, preferably approximately 1 to 2 minutes.
These histological findings are similar to those reported in a recently described rat model of continuous jugular vein infusion of TCDC at a rate of 0.4 to 0.6 μmol/min/100 gram over 60 minutes^31. […] However, the model of the instant invention produced similar results at half the TCDC dosages of the continuous TCDC infusion model, and allows for rapid, convenient infusion of TCDC.
Based on these biochemical and histological findings, a suitable time point for the embodiment of the instant invention using TCDC as the toxic bile acid was the 4 hour, 10 μmol/100 gram weight dose.

hepatic mitochondria = experiment: Lipid-conjugated dienes of hepatic mitochondria (lipid peroxidation); type: in vivo, male Sprague-Dawley rats
Procedure: Hepatic Mitochondria Isolation
Mitochondria were isolated from 10 grams of fresh liver from individual rats by a modification of a previously described method^27. Briefly, the liver was gently homogenized in a loose-fitting Potter-Elvehjm homogenizer in buffer containing 225 mM mannitol, 70 mM sucrose, 3 mM KH2 PO4, 2mM EDTA, 0.1% BSA, 5 mM MgCl2 (pH 7.0), filtered through cheesecloth and centrifuged at 400g×10 minutes. The supernatant was centrifuged at 10,000g for 10 minutes. The supernatant was aspirated and the pellet resuspended and centrifuged at 10,000g for 10 minutes. The resulting mitochondrial pellet was resuspended in 15 ml of buffer, divided into three tubes and added to digitonin (Sigma Chemical Company, St Louis, Mo., 0.29 mg for each gram of original liver) on wet ice×20 minutes, in order to minimize any contamination by lysosomes^28. The resulting mitochondrial preparation was washed two times in the original buffer and centrifuged at 10,000g for 10 minutes. Samples of the pellet were taken for enzyme marker analysis. Two more washes were then performed using a buffer containing 50 mM MOPS/100 mM KCI, yielding the final mitochondrial pellet.
Fresh mitochondria were analyzed for lipid peroxidation as an index of oxidant damage by the lipid-conjugated diene method of Recknagel and Ghoshal^35 with the modification of Bacon et al^36. Briefly, lipids were extracted from mitochondria pellets with chloroform and methanol (2:1, vol/vol), and the lipid in chloroform was dried under a stream of oxygen-free nitrogen^27. The dried lipid was redissolved in 1.5 ml of spectrophotometric grade cyclohexane. Absorbance from 220 to 275 nm was recorded against a cyclohexane blank on a Lambda 2 UV/is Spectrometer (Perkin-Elmer Corp., Norwalk, Conn.). Lipid concentration was approximately 0.5 mg/mi of cyclohexane. After the UV measurements, a 250 μl aliquot from each sample was analyzed for total lipid content by the method of Chiang et al.^37, and absorbance measurements were normalized to a denominator of 1.0 mg lipid per ml of cyclohexane. Lipid peroxidation was estimated by calculating the difference in absorption at 233 nm (the peak absorbance for conjugated dienes) between each rat and the mean of the values from control rats.
Because serum AST and ALT concentrations peaked at 4 hours, further evaluation of liver injury was performed at that time point Total concentrations (conjugated+free bile acids) of individual bile acids were measured in serum obtained at 4 hours by gas chromatography-mass spectroscopy (GC-MS), as previously described^30. Briefly, after serum samples were extracted with the addition of the internal standard 7-alpha, 12-alpha, dihydroxy-5 beta cholanic acid, trimethylsilyl esterification was performed. Individual bile acids were then quantified by GC or GC-MS using a Hewlett-Packard 5790 flame ionization detector equipped with a 30 meter DB-1 capillary column with internal diameter of 0.25 mm and a film thickness of 0.25 micrometers (J & W Scientific, Folsom, Calif.). For GC-MS measurements, a Hewlett-Packard 5970-A mass selective detector operating in selective ion monitoring mode was used. Results were expressed as μmol/L for each individual bile acid.
Rats were divided into two treatment groups. One group was pretreated with parenteral Vitamin E (all-rac-alpha tocopherol, Ephynal, Hoffmann-LaRoche,Nutley, N.J.). The other group was not pretreated. […]

With C[C@H](CCC(=O)NCCS(=O)(=O)O)[C@H]1CC[C@H]2[C@@H]3[C@H](O)C[C@@H]4C[C@H](O)CC[C@]4(C)[C@H]3CC[C@]12C [TCDC, taurochenodeoxycholic acid] the “Histology of the liver” value (liver; 4 h after TCDC 10 μmol/100 gram weight) was “mild hepatocyte swelling, variable necrosis of individual hepatocytes, mild portal tract infiltration with lymphocytes without bile duct injury, and accumulation of smooth eosinophilic globules”, the “Reversibility of hepatocyte injury” value (liver; TCDC 10 μmol/100 gram weight, 24 h) was “much reduced by 24 hours after injection” and the “Predominant histological findings of the in vivo model” value (liver; rat model, TCDC) was “Hepatocyte swelling and a mild degree of cellular necrosis”. For the same compound, the “Hepatic mitochondrial lipid-conjugated dienes, change versus vehicle” value (hepatic mitochondria; 4 h after TCDC 10 μmol/100 gram) was “significant elevations” and the Lipid-conjugated dienes (hepatic mitochondria; Control/TCDC, n = 13, 4 h) was 0.24 ± 0.02 delta abs. 233 nm/mg lipid.
